Assays:
[1] = Metabolic rate in human liver microsome; type: in vitro ADME; conditions: pooled human liver microsome 1 mg/mL protein, NADPH-regenerating system, 37° C., 2-60 minutes, HPLC
Procedure: The compounds of the invention mentioned in Examples and maxacalcitol were compared with each other with respect to the metabolic rate in human liver microsome.
As to the pooled human liver microsome (HHM-0323), those manufactured by Tissue Transformation Technologies were used. A 0.25 M potassium phosphate buffer (pH 7.4) (200 μL), 5 μL of a 250 μM solution of each compound to be tested in DMSO, 50 μL of an NADPH-regenerating system (where 20 mg of β-NADP^+, 70 mg of glucose-6-phosphate, 40 units of glucose-6-phosphate dehydrogenase and 20 mg of magnesium chloride were dissolved in 1 mL of distilled water) and 220 μL of distilled water were added to a microtube and the mixture was subjected to a preincubation for 5 minutes at 37° C. Reaction was started by an addition of 25 μL of human liver microsome (final concentration of protein: 1 mg/mL). Incubation was performed for 2, 10, 30 or 60 minutes and the reaction was stopped by an addition of 500 μL of acetonitrile. After centrifugation at 13,000 rpm for 5 minutes, each test compound in the supernatant (25 μL) was measured by HPLC under the following conditions.
Inertsil ODS-3 (4.6×150 mm; GL Science) was used as a column. With regard to the mobile phase, a solution A (acetonitrile/0.1% aqueous solution of ammonium acetate=10/90) and a solution B (acetonitrile/0.1% aqueous solution of ammonium acetate=90/10) were used under the linear gradient conditions mentioned in Tables 5 to 7. The column temperature, the flow rate and the wavelength for detection were set at 40° C., 1.0 mL/min. and UV 250 or 270 nm, respectively.
The compound mentioned in Example 38 was analyzed under the condition shown in Table 6; the compounds mentioned in Examples 55, 56, 68, 69, 72 and 73 were under the condition shown in Table 7; and the other compounds were under the condition shown in Table 5.
The compounds described in Examples 40, 43 to 48, 50, 55, 56, 58, 60, 61, 63 and 65 to 73 were analyzed under the condition of UV 250 nm; and the other compounds were under the condition of UV 270 nm.
From the HPLC test results as above, the metabolic rate of the test compound was calculated.

[2] = Action to increase the urinary excretion of calcium (1), percutaneous administration; type: in vivo, SD male rats; conditions: percutaneous 10 μg/200 μL/kg/day once a day for 4 days; for Calcium in Urine within 24 hours: accumulated excretion 0 to 24 hours; for Calcium in Urine within 48 hours: accumulated excretion 0 to 48 hours; for Calcium in Urine within 72 hours: accumulated excretion 0 to 72 hours; for Calcium in Urine within 96 hours: accumulated excretion 0 to 96 hours
Procedure: The compound of the invention mentioned in Example 1, 36, 43, 47, 48, 55 or 70 or maxacalcitol in ethanol containing 0.5% DMSO was repeatedly subjected to a percutaneous administration (10 μg/200 μL/kg/day) once a day for 4 days onto the back of SD male rats (7 weeks of age). Ethanol containing 0.5% DMSO was administered to a control group. The calcium concentration in urine collected every 24 hours was measured and multiplied by the amount of urine to calculate the urinary excretion of calcium. The calcium excretion in urine shown in Table 3 indicates the accumulated calcium excretion from 0 to 24 hours, from 0 to 48 hours, from 0 to 72 hours, and from 0 to 96 hours.

[3] = system: human acute myelogenous leukemia cell line HL-60; test: Ability to induce differentiation of HL-60 cells (oxygen radical production after phorbol ester, WST-1); type: cell-based; conditions: 72 hours incubation, then WST-1 and phorbol 12,13-didecanoate for 4 hours, absorbance at 450 nm
Description: It is known that the human acute myelogenous leukemia cell line HL-60is differentiated into neutrophil-like cells by active vitamin D or the like. Thus, the cells after the differentiation begin to express a surface marker such as CD11and CD32and, at the same time, they produce an oxygen radical by stimulation with a phorbol ester or the like. In this test, the above-mentioned property was utilized. As an index of the ability to induce differentiation of the HL-60cells, the amount of the oxygen radical produced by stimulation with a phorbol ester was measured, and the compounds of the invention mentioned in Examples were compared with maxacalcitol with respect to the vitamin D3activity thereof. In use of commercial reagents and kits, if any, the indications attached thereto were referred to.
HL-60cells (supplied from ATCC) were seeded on a 96-well plate at 5×10^3cells/100μL/well and a test compound in two-fold dilution series from 10^−7M was added to the second to the twelfth rows (maximum concentration: the second row). The first row was used for blank. After incubation for 72 hours under a moisturized condition in the presence of 5% CO2 at 37° C. using a CO2 incubator, 10 μL of PBS containing 50 mM WST-1 (manufactured by Takara Bio) and 10 μM phorbol 12,13-didecanoate (manufactured by SIGMA) were added to each well followed by further incubation for 4 hours. Absorbance (reference wavelength: […]) at […] of the WST-1 formazane dye generated by conversion from WST-1 by oxygen radical produced from the differentiated HL-60 cells was measured by a Benchmark microplate reader (manufactured by BioRad). An absorbance meter control software MPM3 (manufactured by BioRad) was used and, from a concentration-absorbance curve, the 50%-maximal effective concentration (hereinafter, referred to as “EC50”) of each was determined by a logistic curve regression.

| Compound | Metabolic Rate [1] [pmol/min/mg] | Calcium in Urine within 24 hours [2] [mg] | Calcium in Urine within 48 hours [2] [mg] | Calcium in Urine within 72 hours [2] [mg] | Calcium in Urine within 96 hours [2] [mg] | EC50 [3] [nM] |
| --- | --- | --- | --- | --- | --- | --- |
| C=C1/C(=C\C=C2/CCC[C@]3(C)C([C@H](C)OC(=O)CCC(C)(O)C(F)(F)F)=CC[C@@H]23)C[C@@H](O)C[C@@H]1O (single isomer, unassigned) [Compound of Example 70, (1S,3R,20S)-20-[(4R) or (4S)-5,5,5-trifluoro-4-hydroxy-4-methylpentanoyloxy]-9,10-secopregna-5Z,7E,10(19),16-tetraene-1,3-diol] | 60 | 1.4 | 1.9 | 2.7 | 3.7 | 0.13 |
| CC(OC(=O)CCC(C)(O)C(F)(F)F)C1CCC2C(=CC=C3CC(O)CC(O)C3)CCCC21C [Compound of Example 43, (1R,3R,20S)-19-nor-20-(5,5,5-trifluoro-4-hydroxy-4-methylpentanoyloxy)-9,10-secopregna-5Z,7E-diene-1,3-diol] | 74 | 1.2 | 1.9 | 3.3 | 4.6 | 0.45 |
| CC(OC(=O)CCC(C)(O)C(F)(F)F)C1=CCC2C(=CC=C3CC(O)CC(O)C3)CCCC12C [Compound of Example 47, (1R,3R,20S)-19-nor-20-(5,5,5-trifluoro-4-hydroxy-4-methylpentanoyloxy)-9,10-secopregna-5Z,7E,16-triene-1,3-diol] | 95 | 1.2 | 1.8 | 2.7 | 3.7 | 0.63 |
| C=C1[C@H](O)CC(=C/C=C2\CCC[C@]3(C)C([C@H](C)OC(=O)CCC(C)(C)O)=CC[C@@H]23)C[C@H]1O [Compound of Example 48, (1R,3R,20S)-19-nor-2-methylene-20-(4-hydroxy-4-methylpentanoyloxy)-9,10-secopregna-5Z,7E,16-triene-1,3-diol] | 69 | 1.1 | 1.9 | 3.5 | 5.2 | 0.21 |
| C=C1[C@H](O)CC(=C/C=C2\CCC[C@]3(C)C([C@H](C)OC(=O)CC[C@](C)(O)C(F)(F)F)=CC[C@@H]23)C[C@H]1O [Compound of Example 55, (1R,3R,20S)-19-nor-2-methylene-20-[(4S)-5,5,5-trifluoro-4-hydroxy-4-methylpentanoyloxy]-9,10-secopregna-5Z,7E,16-triene-1,3-diol] | 128 | 1.1 | 2.0 | 3.4 | 4.8 | 0.15 |
| CCC(O)(CC)CCC(=O)OC(C)C1CCC2C(=CC=C3CC(O)C(C)C(O)C3)CCCC21C [Compound of Example 67, (1R,2α,3R,20S) -2-methyl-19-nor-20-[4-ethyl-4-hydroxyhexanoyloxy]-9,10-secopregna-5Z,7E-diene-1,3-diol] | 38 | – | – | – | – | 0.15 |
| CC(OC(=O)CCC(C)(O)C(F)(F)F)C1=CCC2C(=CC=C3CC(O)CC(O)C3)CCCC12C [Compound of Example 68, (1R,3R,20S)-19-nor-20-[(4S)-5,5,5-trifluoro-4-hydroxy-4-methylpentanoyloxy]-9,10-secopregna-5Z,7E,16-triene-1,3-diol] | 126 | – | – | – | – | 0.23 |
| C[C@H](OC(=O)CC[C@@](C)(O)C(F)(F)F)C1=CC[C@H]2/C(=C/C=C3C[C@@H](O)C[C@H](O)C3)CCC[C@]12C [Compound of Example 69, (1R,3R,20S)-19-nor-20-[(4R)-5,5,5-trifluoro-4-hydroxy-4-methylpentanoyloxy]-9,10-secopregna-5Z,7E,16-triene-1,3-diol] | 86 | – | – | – | – | 0.77 |
| CC(OC(=O)CCC(C)(O)C(F)(F)F)C1CCC2C(=CC=C3CC(O)CC(O)C3)CCCC21C [Compound of Example 72, (1R,3R,20S)-19-nor-20-[(4S)-5,5,5-trifluoro-4-hydroxy-4-methylpentanoyloxy]-9,10-secopregna-5Z,7E-diene-1,3-diol] | 111 | – | – | – | – | 0.17 |
| CC(OC(=O)CCC(C)(O)C(F)(F)F)C1CCC2C(=CC=C3CC(O)CC(O)C3)CCCC21C [Compound of Example 73, (1R,3R,20S)-19-nor-20-[(4R)-5,5,5-trifluoro-4-hydroxy-4-methylpentanoyloxy]-9,10-secopregna-5Z,7E-diene-1,3-diol] | 63 | – | – | – | – | 1.3 |
| (1S,3R,20S)-20-[(4S) or (4R)-5,5,5-trifluoro-4-hydroxy-4-methylpentanoyloxy]-9,10-secopregna-5Z,7E,10(19)-triene-1,3-diol [Compound of Example 36] | 82 | 1.0 | 1.7 | 2.8 | 4.5 | 0.41 |

— patent US8796246B2, “9, 10-secopregnane derivative and pharmaceutical” (Nippon Shinyaku Co., Ltd., priority 2006, dated 2014)
